{"source": "patent US11382927B2", "about": "“Liquid medicinal preparation” (FUJIFILM Corporation, priority 2016, dated 2022)", "origin": "cited, not measured here", "tested_on": "tumor", "settings": "oral administration to mice"}
{"molecule": "Nc1ccn([C@@H]2S[C@H](CO)[C@@H](O)[C@@H]2F)c(=O)n1", "note": "[Compound A, 1-(2-deoxy-2-fluoro-4-thio-β-D-arabinofuranosyl)cytosine]", "values": [{"measurement": "Antitumor activity", "result": "strong antitumor activity"}]}
